Results published in patent US12637425B2, “Compounds and formulations for treating ophthalmic diseases” (Visus Therapeutics, Inc., priority 2020, dated 2026).

Biological target: T1, Recombinant cryAB(R120G) protein (Homo sapiens, UniProt P02511, R120G)
T1 sequence (P02511 1-175 R120G): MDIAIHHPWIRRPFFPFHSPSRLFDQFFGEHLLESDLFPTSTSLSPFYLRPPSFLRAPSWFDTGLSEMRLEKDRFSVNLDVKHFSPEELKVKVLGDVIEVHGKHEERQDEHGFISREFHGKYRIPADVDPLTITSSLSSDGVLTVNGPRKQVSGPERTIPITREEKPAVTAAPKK
Assay: Kinetic turbidity aggregation assay of recombinant cryAB(R120G)
Format: biochemical
Settings: for inhibition at 25 µM: 25 μM compound, read-out: % Inhibition of Protein Aggregation, 25 μM cmpd; for inhibition at 25 µM / inhibition at 100 µM: 15 μM cryAB(R120G), 42° C., absorbance at 550 nm; for inhibition at 100 µM: 100 μM compound, read-out: % Inhibition of Protein Aggregation, 100 μM cmpd
Protocol: Example A-1: Kinetic Turbidity Aggregation Assay of Recombinant cryAB(R120)
Recombinant cryAB(R120G) protein was diluted to 100 μM in assay buffer (50 mM Tris, 100 mM NaCl, 5 mM DTT, 0.01% Triton X-100, 0.05% PEG-8000). Compounds were dissolved in DMSO at 10 mM then typically diluted to 2.5 mM in DMSO and serially diluted 2-fold as necessary. To a 384-well black microplate in quadruplicate was added 81 μL assay buffer, followed by 15 μL protein solution, and 4 μL compound to give a final concentration of 15 μM cryAB(R120G) protein in 4% DMSO. […] N.D. is not determined.

Work on `Cn1cc([C@H](CNS(=O)(=O)c2ccc3cc[nH]c3c2)N2CC[C@@H](c3ccccc3)C2)c2ccccc21` [Compound 59, N-((R)-2-(1-methyl-1H-indol-3-yl)-2-((S)-3-phenylpyrrolidin-1-yl)ethyl)-1H-indole-6-sulfonamide] yielded an inhibition at 25 µM of 2% and an inhibition at 100 µM of 49.8%.

In the case of `Cn1cc([C@@H](CNS(=O)(=O)c2ccc3cc[nH]c3c2)N2CC[C@H](c3ccccc3)C2)c2ccccc21` [Compound 60, N-((S)-2-(1-methyl-1H-indol-3-yl)-2-((R)-3-phenylpyrrolidin-1-yl)ethyl)-1H-indole-6-sulfonamide], the inhibition at 25 µM is reported as 57% and the inhibition at 100 µM is reported as 94.9%.

`Cn1cc([C@H](CNS(=O)(=O)c2ccc3cc[nH]c3c2)N2CC[C@H](c3ccccc3)C2)c2ccccc21` [Compound 61, N-((R)-2-(1-methyl-1H-indol-3-yl)-2-((R)-3-phenylpyrrolidin-1-yl)ethyl)-1H-indole-6-sulfonamide] gave an inhibition at 25 µM of 1% and an inhibition at 100 µM of 66.7%.

In the case of `CC(=O)N[C@@H]1CCN(C(CNS(=O)(=O)c2ccc3cc[nH]c3c2)c2cn(C)c3ccccc23)C1` (stereo partly drawn) [Compound 62, N-((3R)-1-(2-(1H-indole-6-sulfonamido)-1-(1-methyl-1H-indol-3-yl)ethyl)pyrrolidin-3-yl)acetamide], the inhibition at 25 µM is reported as -39% and the inhibition at 100 µM is reported as 53.1%.

`Cc1cc2cc[nH]c2cc1S(=O)(=O)NCC(c1cn(C)c2ccccc12)N(C)C` (centres unmarked) [Compound 63, N-(2-(dimethylamino)-2-(1-methyl-1H-indol-3-yl)ethyl)-5-methyl-1H-indole-6-sulfonamide] was tested, and the inhibition at 25 µM was 25% and the inhibition at 100 µM was 99.2%.

Compound `C[C@H]1CCCN1[C@H](CNS(=O)(=O)c1ccc2cc[nH]c2c1)c1cn(C)c2ccccc12` [Compound 64, N-((S)-2-(1-methyl-1H-indol-3-yl)-2-((S)-2-methylpyrrolidin-1-yl)ethyl)-1H-indole-6-sulfonamide] has an inhibition at 25 µM of 9% and an inhibition at 100 µM of 95.4%.

`C[C@H]1CCCN1[C@@H](CNS(=O)(=O)c1ccc2cc[nH]c2c1)c1cn(C)c2ccccc12` [Compound 65, N-((R)-2-(1-methyl-1H-indol-3-yl)-2-((S)-2-methylpyrrolidin-1-yl)ethyl)-1H-indole-6-sulfonamide] was tested, and the inhibition at 25 µM was 93% and the inhibition at 100 µM was 99.7%.

For `Cn1cc([C@@H](CNS(=O)(=O)c2ccc3cc[nH]c3c2)N2CCCC2)c2cccnc21` [Compound 66, (S)-N-(2-(1-methyl-1H-pyrrolo[2,3-b]pyridin-3-yl)-2-(pyrrolidin-1-yl)ethyl)-1H-indole-6-sulfonamide], the inhibition at 25 µM was -10% and the inhibition at 100 µM was 42%.

In the case of `Cn1cc([C@H](CNS(=O)(=O)c2ccc3cc[nH]c3c2)N2CCCC2)c2cccnc21` [Compound 67, (R)-N-(2-(1-methyl-1H-pyrrolo[2,3-b]pyridin-3-yl)-2-(pyrrolidin-1-yl)ethyl)-1H-indole-6-sulfonamide], the inhibition at 25 µM is reported as 34% and the inhibition at 100 µM is reported as 73.3%.

`CN(C)C(CNS(=O)(=O)c1ccc2cc[nH]c2c1)c1cn(Cc2cncs2)c2ccccc12` (centres unmarked) [Compound 69, N-(2-(dimethylamino)-2-(1-(thiazol-5-ylmethyl)-1H-indol-3-yl)ethyl)-1H-indole-6-sulfonamide] gave an inhibition at 25 µM of 58% and an inhibition at 100 µM of 100%.

For `CN(C)C(CNS(=O)(=O)c1ccc2cc[nH]c2c1)c1cn(CC2COC2)c2ccccc12` (centres unmarked) [Compound 70, N-(2-(dimethylamino)-2-(1-(oxetan-3-ylmethyl)-1H-indol-3-yl)ethyl)-1H-indole-6-sulfonamide], the inhibition at 25 µM was 76% and the inhibition at 100 µM was 99.6%.

Compound `CN(C)C(CNS(=O)(=O)c1ccc2cc[nH]c2c1)c1cn(CC#N)c2ccccc12` (centres unmarked) [Compound 71, N-(2-(1-(cyanomethyl)-1H-indol-3-yl)-2-(dimethylamino)ethyl)-1H-indole-6-sulfonamide] has an inhibition at 25 µM of 63% and an inhibition at 100 µM of 99.3%.

Work on `CCn1nc(C(CNS(=O)(=O)c2ccc3cc[nH]c3c2)N(C)C)c2ccccc21` (centres unmarked) [Compound 72, N-(2-(dimethylamino)-2-(1-ethyl-1H-indazol-3-yl)ethyl)-1H-indole-6-sulfonamide] yielded an inhibition at 25 µM of 62%, an inhibition at 100 µM of 98.2% and an IC50 (inhibition of cryAB(R120G) protein aggregation) of 10 to 50 µM.

`Cc1cccc2c(C(CNS(=O)(=O)c3ccc4cc[nH]c4c3)N(C)C)cn(C)c12` (centres unmarked) [Compound 73, N-(2-(1,7-dimethyl-1H-indol-3-yl)-2-(dimethylamino)ethyl)-1H-indole-6-sulfonamide] showed an inhibition at 25 µM of 57% and an inhibition at 100 µM of 99.5%.

Compound `CO[C@@H]1CCN([C@H](CNS(=O)(=O)c2ccc3cc[nH]c3c2)c2cn(C)c3ccccc23)C1` [Compound 74, N-((S)-2-((R)-3-methoxypyrrolidin-1-yl)-2-(1-methyl-1H-indol-3-yl)ethyl)-1H-indole-6-sulfonamide] has an inhibition at 25 µM of 40% and an inhibition at 100 µM of 99.9%.

Compound `CO[C@@H]1CCN([C@@H](CNS(=O)(=O)c2ccc3cc[nH]c3c2)c2cn(C)c3ccccc23)C1` [Compound 75, N-((R)-2-((R)-3-methoxypyrrolidin-1-yl)-2-(1-methyl-1H-indol-3-yl)ethyl)-1H-indole-6-sulfonamide] has an inhibition at 25 µM of -10% and an inhibition at 100 µM of 99.2%.

`C[C@@H]1CCN([C@H](CNS(=O)(=O)c2ccc3cc[nH]c3c2)c2cn(C)c3ccccc23)C1` [Compound 76, N-((S)-2-(1-methyl-1H-indol-3-yl)-2-((R)-3-methylpyrrolidin-1-yl)ethyl)-1H-indole-6-sulfonamide] was tested, and the inhibition at 25 µM was 28% and the inhibition at 100 µM was 85.1%.

With `C[C@@H]1CCN([C@@H](CNS(=O)(=O)c2ccc3cc[nH]c3c2)c2cn(C)c3ccccc23)C1` [Compound 77, N-((R)-2-(1-methyl-1H-indol-3-yl)-2-((R)-3-methylpyrrolidin-1-yl)ethyl)-1H-indole-6-sulfonamide] the inhibition at 25 µM was 88% and the inhibition at 100 µM was 100%.

For `O=S(=O)(NC[C@H](c1cnc2ccccn12)N1CCCC1)c1ccc2cc[nH]c2c1` [Compound 78, (R)-N-(2-(imidazo[1,2-a]pyridin-3-yl)-2-(pyrrolidin-1-yl)ethyl)-1H-indole-6-sulfonamide], the inhibition at 25 µM was 23% and the inhibition at 100 µM was 99.6%.

Compound `O=S(=O)(NC[C@@H](c1cnc2ccccn12)N1CCCC1)c1ccc2cc[nH]c2c1` [Compound 79, (S)-N-(2-(imidazo[1,2-a]pyridin-3-yl)-2-(pyrrolidin-1-yl)ethyl)-1H-indole-6-sulfonamide] has an inhibition at 25 µM of 8% and an inhibition at 100 µM of 98.7%.

`Cn1cc([C@@H](CNS(=O)(=O)c2ccc3cc[nH]c3c2)N2CCCC2)c2cnccc21` [Compound 80, (S)-N-(2-(1-methyl-1H-pyrrolo[3,2-c]pyridin-3-yl)-2-(pyrrolidin-1-yl)ethyl)-1H-indole-6-sulfonamide] showed an inhibition at 25 µM of -28% and an inhibition at 100 µM of 95.1%.

In the case of `Cn1cc([C@H](CNS(=O)(=O)c2ccc3cc[nH]c3c2)N2CCCC2)c2cnccc21` [Compound 81, (R)-N-(2-(1-methyl-1H-pyrrolo[3,2-c]pyridin-3-yl)-2-(pyrrolidin-1-yl)ethyl)-1H-indole-6-sulfonamide], the inhibition at 25 µM is reported as -12% and the inhibition at 100 µM is reported as 23%.

`Cn1cc([C@@H](CNS(=O)(=O)c2ccc3cc[nH]c3c2)N2CCCC2)c2ccncc21` [Compound 82, (S)-N-(2-(1-methyl-1H-pyrrolo[2,3-c]pyridin-3-yl)-2-(pyrrolidin-1-yl)ethyl)-1H-indole-6-sulfonamide] gave an inhibition at 25 µM of 16% and an inhibition at 100 µM of 38%.
